The structures appear in SMILES notation.

Compound `O=C(c1ccc(Cl)cc1)c1ccsc1` registered a melting point of 92 to 94 °C.
`CCN(CC)S(=O)(=O)c1ccc(N2CC(C(=O)O)CC2=O)cc1` (stereo not drawn): the melting point was in the range of 123 to 127 °C.
In the case of `Cc1nn(C)c(C)c1S(=O)(=O)NC(C)C(=O)O` (stereo not drawn) it was 197 to 199 °C; in that of `Cc1nc2ccccn2c1C(=O)NN`, 188 to 190 °C.
In the case of `CCC(CC)CS(N)(=O)=O` it was 33 to 35 °C; in that of `O=c1ccc(-c2cccc([N+](=O)[O-])c2)n[nH]1`, 274 to 276 °C; in that of `Clc1nncc2ccoc12`, 117 to 119 °C.
In the case of `COc1cc(C(=O)O)cc(Cl)c1OCC(N)=O` it was 211 to 213 °C; in that of `O=C(O)CCc1ccc(-c2ccccc2)o1`, 118 to 120 °C; in that of `c1ccc(NCc2cccs2)nc1`, 76 to 78 °C.
In the case of `O=C(O)C=C(C1CC1)C1CC1`, the melting point lay in the range of 134 to 136 °C.
Regarding `O=S(=O)(c1ccc2c(c1)CCCN2)N1CCCC1`, the melting point is 130 to 132 °C.
In the case of `O=C(O)c1ccc(C(=O)Nc2ccccc2)cc1`, the melting point lay within 309 to 311 °C.
In turn, `CSc1cc(C(=O)O)oc1C` had a melting point of 144 to 146 °C.
In the case of `CNc1ccc(Br)nc1` it was 57 to 59 °C.
`CCCOc1cccc(CC(=O)O)c1`: the melting point is 88 to 90 °C.
In the case of `Cc1ccc(-c2cc(N)nc(-c3ccccc3)c2)cc1` it was 110 to 112 °C; in that of `COC(=O)C(=O)CC(=O)c1ccc(-c2ccccc2)cc1`, 142 to 144 °C.
`O=C(O)CCNC(=O)C1CC1` yielded a melting point of 107 to 109 °C.
`O=C(c1cc2cc(Br)ccc2o1)c1cccs1` yielded a melting point of 88 to 90 °C.
`Nc1cnn(-c2cccc(C(F)(F)F)c2)c1` came in with a melting point of 82 to 84 °C.
In the case of `O=C(O)C1CC1c1cccc(F)c1` (stereo not drawn) it was 78 to 80 °C; in that of `O=C(O)C1CCCN1C1CCNCC1` (stereo not drawn), 197 to 199 °C; in that of `CCOC(=O)c1c(N)sc2c1CC(C)(C)NC2(C)C`, 95 to 97 °C.
In the case of `NC1CCc2c(O)cccc21` (stereo not drawn) it was 167 to 169 °C; in that of `CNC1(C(=O)O)CCCCC1`, 309 to 311 °C.
Take `NNC(=S)NCC(N)=O`: the melting point fell in the range of 153 to 155 °C.
In the case of `COc1ccc2cc(C(=O)O)c(C)nc2c1` it was 209 to 211 °C; in that of `CC(c1ccccc1)c1ccc(O)cc1` (stereo not drawn), 57 to 59 °C.
In the case of `COc1ccc2c(c1)OCC2CC(=O)O` (stereo not drawn) it was 94 to 96 °C; in that of `O=C(O)CCc1cc2ccccc2[nH]c1=O`, 227 to 229 °C.
In the case of `CC(C)(C)c1cc(C(=O)O)cc(C(=O)O)c1` it was 300 to 302 °C; in that of `CCC(C)NC(=O)CN1CCNCC1` (stereo not drawn), 55 to 57 °C.
Compound `NCCNc1ncnc2sccc12` showed a melting point of 117 to 119 °C.
In the case of `COC(=O)Cc1csc(N)n1` it was 123 to 125 °C; in that of `Nc1cnccc1SCCCO`, 71 to 73 °C; in that of `NNS(=O)(=O)c1ccccc1[N+](=O)[O-]`, 89 to 91 °C.
With `COC(=O)c1ccccc1NC(=O)OCC(F)(F)F`, the melting point is 86 to 88 °C.
For `O=C(NC1CCNCC1)c1ccc(F)cc1`, the melting point fell in the range of 175 to 177 °C.
In the case of `NCc1ccc(S(=O)(=O)N2CCOCC2)cc1` it was 121 to 123 °C; in that of `N#Cc1cc([N+](=O)[O-])cnc1Cl`, 119 to 121 °C; in that of `Nc1cc(-c2ccco2)nn1-c1ccc(F)cc1F`, 120 to 122 °C.
In the case of `Cc1cc(C)c2c(=O)[nH][nH]c2n1` it was 249 to 251 °C.
`Cc1ccc(C2CCCCC2O)cc1` (stereo not drawn): the melting point was 72 to 74 °C.
As for `CCOc1nnc(-c2ccccc2)n1-c1ccccc1`, the melting point is 154 to 156 °C.
Compound `O=C(O)c1cc(-c2ccco2)nc2onc(-c3ccco3)c12` returned a melting point of 269 to 271 °C.
In the case of `Nc1c(C(=O)c2ccco2)oc2ccccc12` it was 180 to 182 °C; in that of `CC(C)CC(=O)NCCc1ccc(S(=O)(=O)Cl)s1`, 79 to 81 °C.

Broadly, the melting point is the temperature, or range, at which the solid turns liquid.

The values are drawn from a melting point compilation (Tetko et al.).
